What was measured:
nerve = settings: Park et al. Theranostics 4, 823-833 (2014); cited from earlier work
[1] = Pharmacokinetics and biodistribution by LCMS/MS; format: in vivo, mice; settings: 2 mg/kg
Method: (§1) Drug release pharmacokinetics (PK) and biodistribution (BioD) studies were completed in mice systemically administered DSPE-PEG micelle, cyclodextrin or co-solvent formulated LGW01-08 for equivalent comparison, explained as follows. Formulated LGW1-08 was injected at a 2 mg/kg dose and blood collection was completed at the time points of 0, 0.5, 1, 2, 4, 8, and 24 hours post injection (n=5 mice per time point per formulation). Following blood collection via cardiac puncture, fluorescence and color images were acquired of the brain, lungs, liver, stomach, intestines, pancreas, spleen, kidney, bladder, brachial plexus, and sciatic nerves (n=3 mice per time point per formulation). Additionally, brain, lung, heart, liver, and kidney tissues were collected for liquid chromatography mass spectroscopy (LCMS/MS) analysis (n=5 mice per time point per formulation). The pharmacokinetic parameters were calculated from blood uptake kinetics data by non-compartmental analysis using Phoenix 64 (Certara, Princeton, N.J.), including the area under the concentration versus time curve from 0 to ∞ (AUC0-∞), plasma volume of distribution (Vd), clearance (CL) and half-life (t1/2).

[2] = tested on: brachial plexus and sciatic nerves; experiment: Fluorescence imaging time course after systemic administration; format: in vivo, mice; settings: 2 mg/kg, 24 hours after systemic administration, all formulations
Excerpt: as §1, with “Formulated LGW1-08 was injected at a 2 mg/kg dose and blood collection was completed at the time points of 0, 0.5, 1, 2, 4, 8, and 24 hours post injection (n=5 mice per time point per formulation).” left out, “(t1/2). Nerve specific contrast and tissue biodistribution intensities were assessed for all initial testing, PK, BioD, and PD studies using the intraoperative fluorescence imaging systems to collect images of the nerves and surrounding tissue as well as the additional tissues for biodistribution assessment. Additional unstained control animals were imaged to assess tissue autofluorescence. […]” for “(t1/2).”

[3] = LGW01-08 solubility and loading in formulations (spectrophotometric quantification); format: physicochemical
Method: Based on the solubility of the nerve specific dye, liposomes sphingomyelin cholesterol (55:45), a FDA approved lipid mix was considered first for encapsulation of the agent as the lipid vesicles have both the lipid bilayer and hydrophilic core. Two common methods for preparation of liposomes are passive and pH gradient method. For passive loading method, both LGW01-08 and lipids were dissolved in a mixture of chloroform and methanol (70:30) and subjected to rotary evaporation under vacuum. […]
The next delivery platform which could increase the solubility of the nerve dye without compromising the nerve specificity was micelles. […] Commercially available (A-B-A block), PLURONIC® ethylene oxide-propylene oxide block co-polymer capable of self-assembly to form micelle was evaluated for encapsulating the nerve dye. […] The supernatant was passed through a 0.22μ filter and analyzed for nerve dye loading.
In order to achieve higher encapsulation, two more polymeric micelle platforms: Poly(ethylene glycol)(2 k)-block-poly(D,L-lactic acid) (1.8 k) (PEG-b-PLA) and Distearyl-phosphatidylethanolamine-PEG2000 (DSPE-PEG) were evaluated. […] Triplicate samples were prepared for quantification by diluting the complex 100-fold in 10% triton solution. […]
HP-β-CD complex was prepared by the solvent casting method. […] Triplicate samples were prepared for quantification by diluting the complex 100-fold in 10% triton solution. […]

[4] = tested on: brachial plexus and sciatic nerves; experiment: Dose ranging pharmacodynamics imaging studies; format: in vivo, mice; settings: two hours post injection
Method: Following PK studies to assess the maximum nerve signal to background ratio (SBR) for LGW1-08 in each formulation (2 hours), dose response pharmacodynamic (PD) studies were completed in mice using a dose range up to the MTD: 0.1, 0.2, 0.3, 0.6, 1, 1.5, 2, 2.5, and 3 mg/kg (n=3 mice per dose per formulation).
Nerve specific contrast and tissue biodistribution intensities were assessed for all initial testing, PK, BioD, and PD studies using the intraoperative fluorescence imaging systems to collect images of the nerves and surrounding tissue as well as the additional tissues for biodistribution assessment. Additional unstained control animals were imaged to assess tissue autofluorescence.
Custom written MatLab code was used to analyze the tissue specific fluorescence where regions of interest (ROIs) were selected using the white light images. These ROIs were then analyzed on the co-registered matched fluorescence images permitting assessment of the mean tissue intensities and nerve signal to background ratios. Intensity measurements were divided by the exposure time to obtain normalized intensity per second measurements.

[5] = tested on: brachial plexus and sciatic nerves; experiment: Formulation nerve-specificity screening after systemic administration; format: in vivo, mice; settings: preclinical mouse models
Method: Ox4 and LGW01-08 solubilized in each formulation were screened in mice following systemic administration for nerve specificity. 200 nmol of LGW01-08 in 100 μL of the four prepared formulations were administered intravenously to n=3 mice 4 hours before nerve imaging. The four hour fluorophore to imaging window had been previously shown to provide the highest nerve to background tissue fluorescence for Oxazine 4 and several other nerve specific fluorophores. Gibbs-Strauss et al. Molecular imaging 10, 91-101 (2011); Park et al. Theranostics 4, 823-833 (2014); Barth & Gibbs. Theranostics 7, 573-593 (2017). Uninjected animals were used for all control images (n=3 mice or 12 nerve sites/formulation).
Intraoperative Fluorescence Imaging Systems. A custom-built small animal imaging system capable of real-time color and fluorescence imaging was used to acquire rodent in vivo images. The imaging system consisted of a QImaging EXi Blue monochrome camera (Surrey, British Columbia, CA) for fluorescence detection with a removable Bayer filter for collecting co-registered color and fluorescence images. […] For fluorescence excitation, the PhotoFluor II was filtered with a 620±30 nm bandpass excitation filter. Resulting fluorescence was collected with a 700±37.5 nm bandpass emission filter for image collection. […] Camera exposure times ranged from 10-2000 ms for fluorescence image collection. […]

[6] = DSPE-PEG micelle and cyclodextrin formulations

Compound | nerve specificity (nerve) | blood concentrations over time ([1]; all formulations) | LGW01-08 cleared from the tissue ([1]; by 4 hours post injection) | nerve fluorescence signal intensities [2] | solubility [3] [µg/mL] | nerve SBRs across all doses tested ([4]; 0.1-3 mg/kg) | dose at which fluorescence intensity values were highest [4, 6] [mg/kg] | fluorescence intensity values at the 0.1 mg/kg dose [4, 6] | dose up to which nerve to adipose background ratios increased [4] [mg/kg] | dose up to which nerve to muscle background ratios increased [4] [mg/kg] | nerve specificity following systemic administration [5]
Oxazine 4 perchlorate | high nerve-specificity |  |  |  |  |  |  |  |  |  | 
CCNc1cc2oc3cc(=[N+](CC)CC)ccc-3nc2cc1C [LGW1-08, N-ethyl-N-(7-(ethylamino)-8-methyl-3H-phenoxazin-3-ylidene)ethanaminium] |  | decreased quickly | 90-99% | close to baseline autofluorescence levels | 250 | No significant difference | 2.5 | decreased to autofluorescence levels | 1.5 | 0.6 | high nerve specificity

From patent US20210236657A1, “NERVE-SPECIFIC FLUOROPHORE FORMULATIONS FOR DIRECT AND SYSTEMIC ADMINISTRATION” (OREGON HEALTH & SCIENCE UNIVERSITY, priority 2018, published 2021)
